# Measurements reported in patent US6020370A, “Bridged cyclic amino acids as pharmaceutical agents” (Warner-Lambert Company, priority 1998, dated 2000).
# Molecular target: T1, α2 δ subunit of a calcium channel (Sus scrofa, UniProt A0A287BIN3)
# T1 construct: derived from porcine brain tissue; from tissue; host or cells: porcine brain tissue
# Assay: Radioligand binding assay using [^3 H]gabapentin and the α2 δ subunit derived from porcine brain tissue
# Details: Table 1, [^3 H]gabapentin
# T1 sequence (A0A287BIN3 entry or part of it): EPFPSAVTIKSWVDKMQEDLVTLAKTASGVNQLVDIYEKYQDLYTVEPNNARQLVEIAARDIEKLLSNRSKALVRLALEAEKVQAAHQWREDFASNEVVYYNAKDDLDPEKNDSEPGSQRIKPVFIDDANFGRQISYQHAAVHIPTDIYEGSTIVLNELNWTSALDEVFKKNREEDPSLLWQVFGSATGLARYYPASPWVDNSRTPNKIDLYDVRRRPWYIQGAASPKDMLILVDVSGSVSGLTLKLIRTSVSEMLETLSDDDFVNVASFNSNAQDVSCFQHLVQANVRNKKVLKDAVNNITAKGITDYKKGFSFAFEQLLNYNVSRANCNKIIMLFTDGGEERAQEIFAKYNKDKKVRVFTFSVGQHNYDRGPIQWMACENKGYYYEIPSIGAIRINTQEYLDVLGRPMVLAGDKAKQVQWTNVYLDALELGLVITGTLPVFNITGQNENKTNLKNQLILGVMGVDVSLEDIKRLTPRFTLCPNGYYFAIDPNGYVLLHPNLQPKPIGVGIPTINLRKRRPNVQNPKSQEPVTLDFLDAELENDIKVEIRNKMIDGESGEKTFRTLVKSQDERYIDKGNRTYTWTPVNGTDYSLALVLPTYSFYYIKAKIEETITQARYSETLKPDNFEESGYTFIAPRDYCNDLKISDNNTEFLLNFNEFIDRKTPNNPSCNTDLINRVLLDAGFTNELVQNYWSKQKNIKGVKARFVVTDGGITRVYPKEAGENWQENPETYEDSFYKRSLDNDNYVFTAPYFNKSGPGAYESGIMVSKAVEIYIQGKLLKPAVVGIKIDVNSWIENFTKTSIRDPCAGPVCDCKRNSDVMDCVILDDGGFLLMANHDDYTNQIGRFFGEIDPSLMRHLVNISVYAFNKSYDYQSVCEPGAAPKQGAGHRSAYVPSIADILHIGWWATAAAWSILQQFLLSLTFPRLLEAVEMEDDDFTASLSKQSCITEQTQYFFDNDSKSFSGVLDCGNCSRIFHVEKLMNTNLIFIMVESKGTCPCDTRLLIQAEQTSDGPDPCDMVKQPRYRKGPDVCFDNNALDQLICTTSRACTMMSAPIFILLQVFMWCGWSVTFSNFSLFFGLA
row,SMILES,IC50 [nM]
1,NCC1(CC(=O)O)C2CCCC1CCC2 (centres unmarked) [Compound 3],47
2,NCC1(CC(=O)O)CC2CCC1C2 (racemic) [Compound 5],103
